Source: patent publication US9833497B2, “Human originated EGF domain proteins and use of the same” (CHENGDU SOURCEBIO LIMITED-LIABILITY COMPANY, priority 2013, dated 2017)

Columns and labels:
Assay type in all cases: cell-based
Pseudomonas aeruginosa = assay: MIC against Gram-negative bacteria: Pseudomonas aeruginosa; details: 10 h cultivation at 37° C.; for MIC / MIC (μg/mL) P. aeruginosa: P. aeruginosa
In short: (§1)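 MIC = lowest concentration of recombinant protein showing no growth. Test proteins: purified human-derived EGF domain proteins, two-fold dilution series, three wells per concentration; inoculum 5×10^5 CFU/mL in LB; incubation 37° C with shaking at 175 rpm.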

Proteus vulgaris = assay: MIC against Gram-negative bacteria: Proteus vulgaris; details: 10 h cultivation at 37° C.; for MIC / MIC (μg/mL) P. vulgaris: P. vulgaris
In short: as §1

Aeromonas hydrophila = assay: MIC against Gram-negative bacteria: Aeromonas hydrophila; details: 10 h cultivation at 37° C.; for MIC / MIC (μg/mL) A. hydrophila: A. hydrophila
In short: as §1

E. coli BL21 = assay: MIC against Gram-negative bacteria: E. coli BL21; details: E. coli BL21, 10 h cultivation at 37° C.
In short: as §1

Enterobacter cloacae = assay: MIC against Gram-negative bacteria: Enterobacter cloacae; details: 10 h cultivation at 37° C.; for MIC / MIC (μg/mL) E. cloacae: E. cloacae
In short: as §1

Moraxella catarrhalis = assay: MIC against Gram-negative bacteria: Moraxella catarrhalis; details: 10 h cultivation at 37° C.; for MIC / MIC (μg/mL) M. catarrhalis: M. catarrhalis
In short: as §1

E. coli DH5α = assay: Antibacterial activity: MIC and growth curve against E. coli DH5α in 96-well plate; details: minimal inhibitory concentration against E. coli DH5α; 96-well plate, 5×10^5 CFU/mL, 37° C., judged after 8 h
In short: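 MIC taken as lowest protein level with no bacterial growth, tracked by A600 every 30 min during 37 °C, 175 rpm culture. Two-fold protein series 50-12.5 μg/mL final, triplicate wells, against 5×10^5 CFU/mL of LB-washed mid-log cells.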

Serratia marcescens = assay: MIC against Gram-negative bacteria: Serratia marcescens; details: 10 h cultivation at 37° C.; for MIC / MIC (μg/mL) S. marcescens: S. marcescens
In short: as §1

Proteus mirabilis = assay: MIC against Gram-negative bacteria: Proteus mirabilis; details: 10 h cultivation at 37° C.; for MIC / MIC (μg/mL) P. mirabilis: P. mirabilis
In short: as §1

Citrobacter diversus = assay: MIC against Gram-negative bacteria: Citrobacter diversus; details: 10 h cultivation at 37° C.; for MIC / MIC (μg/mL) C. diversus: C. diversus
In short: as §1

Klebsiella pneumonia = assay: MIC against Gram-negative bacteria: Klebsiella pneumonia; details: 10 h cultivation at 37° C.; for MIC / MIC (μg/mL) K. pneumonia: K. pneumonia
In short: as §1

Row | Substance | MIC (Pseudomonas aeruginosa) | MIC (Proteus vulgaris) | MIC (Aeromonas hydrophila) | MIC (E. coli BL21) | MIC (Enterobacter cloacae) | MIC (Moraxella catarrhalis) | MIC (E. coli DH5α) | MIC (Serratia marcescens) | MIC (Proteus mirabilis) | MIC (Citrobacter diversus) | MIC (Klebsiella pneumonia) | MIC (μg/mL) P. aeruginosa (Pseudomonas aeruginosa; 5×10^5 CFU/mL) | MIC (μg/mL) P. vulgaris (Proteus vulgaris; 5×10^5 CFU/mL) | MIC (μg/mL) A. hydrophila (Aeromonas hydrophila; 5×10^5 CFU/mL) | MIC (μg/mL) E. coli BL21 (E. coli BL21; 5×10^5 CFU/mL) | MIC (μg/mL) E. cloacae (Enterobacter cloacae; 5×10^5 CFU/mL) | MIC (μg/mL) M. catarrhalis (Moraxella catarrhalis; 5×10^5 CFU/mL) | MIC (μg/mL) S. marcescens (Serratia marcescens; 5×10^5 CFU/mL) | MIC (μg/mL) P. mirabilis (Proteus mirabilis; 5×10^5 CFU/mL) | MIC (μg/mL) C. diversus (Citrobacter diversus; 5×10^5 CFU/mL) | also measured
1 | PRT1036 (VEDKCEKACRPEEECLALNSTWGCFCRQDLNSSDVHSLQPQLDCG; listed as Homo sapiens) | 25 µg/mL | 50 µg/mL | 12.5 µg/mL | 50 µg/mL | 50 µg/mL | 12.5 µg/mL | 25 µg/mL | 50 µg/mL | 50 µg/mL | 50 µg/mL | 25 µg/mL |  |  |  |  |  |  |  |  |  | 
2 | PRT1437 (DVNECADGAHPPCHASARCRNTKGGFQCLCADPYELGDDGRTCV; listed as Homo sapiens) |  |  |  |  |  |  | 12.5 µg/mL |  |  |  |  |  |  |  |  |  |  |  |  |  | MIC against P. aeruginosa (Pseudomonas aeruginosa; Pseudomonas aeruginosa, 5×10^5 CFU/mL): 12.5 µg/mL; MIC against P. vulgaris (Proteus vulgaris; Proteus vulgaris, 5×10^5 CFU/mL): 12.5 µg/mL; MIC against A. hydrophila (Aeromonas hydrophila; Aeromonas hydrophila, 5×10^5 CFU/mL): 12.5 µg/mL; MIC against E. coli BL21 (E. coli BL21; 5×10^5 CFU/mL): 25 µg/mL; MIC against E. cloacae (Enterobacter cloacae; Enterobacter cloacae, 5×10^5 CFU/mL): 12.5 µg/mL; MIC against M. catarrhalis (Moraxella catarrhalis; Moraxella catarrhalis, 5×10^5 CFU/mL): 12.5 µg/mL; MIC against S. marcescens (Serratia marcescens; Serratia marcescens, 5×10^5 CFU/mL): 50 µg/mL; MIC against P. mirabilis (Proteus mirabilis; Proteus mirabilis, 5×10^5 CFU/mL): 25 µg/mL; MIC against C. diversus (Citrobacter diversus; Citrobacter diversus, 5×10^5 CFU/mL): 12.5 µg/mL; MIC against K. pneumonia (Klebsiella pneumonia; Klebsiella pneumonia, 5×10^5 CFU/mL): 12.5 µg/mL
3 | PRT198 (CQPKTCNMRGICNNKQHCHCNHEWAPPYC; listed as Homo sapiens) |  |  |  |  |  |  | 12.5 µg/mL |  |  |  |  | 12.5 µg/mL | 25 µg/mL | 25 µg/mL | 12.5 µg/mL | 12.5 µg/mL | 25 µg/mL | 50 µg/mL | 12.5 µg/mL | 50 µg/mL | MIC (μg/mL) K. pneumonia (Klebsiella pneumonia; 5×10^5 CFU/mL): 50 µg/mL
4 | PRT955 (DVDECLLQPNACQNGGTCANRNGGYGCVCVNGWSGDDCS; listed as Homo sapiens) | 25 µg/mL | 25 µg/mL | 12.5 µg/mL | 12.5 µg/mL | 25 µg/mL | 12.5 µg/mL | 50 µg/mL | 12.5 µg/mL | 12.5 µg/mL | 25 µg/mL | 12.5 µg/mL |  |  |  |  |  |  |  |  |  | 
5 | PRT900 (VLAPCAPSPCRNGGECRQSEDYESFSCVCPTGWQGQTCE; listed as Homo sapiens) | 12.5 µg/mL | 25 µg/mL | 12.5 µg/mL | 25 µg/mL | 12.5 µg/mL | 25 µg/mL | 12.5 µg/mL | 50 µg/mL | 12.5 µg/mL | 12.5 µg/mL | 12.5 µg/mL |  |  |  |  |  |  |  |  |  | 
6 | PRT865 (CSCHPVGSAVLPANSVTFCDPSNGDCPCKPGVAGRRCDRCMVGYWGFGDYGCRP; listed as Homo sapiens) |  |  |  |  |  |  | 25 µg/mL |  |  |  |  | 25 µg/mL | 12.5 µg/mL | 50 µg/mL | 12.5 µg/mL | 12.5 µg/mL | 50 µg/mL | 12.5 µg/mL | 25 µg/mL | 12.5 µg/mL | MIC (μg/mL) K. pneumonia (Klebsiella pneumonia; 5×10^5 CFU/mL): 50 µg/mL
